Data on one molecule can be found in patent US20060167025A1, “Tricyclic amino alcohols, processes for synthesis of same and use of same as anti-inflammatory drugs” (priority 2004, published 2006).

pIC50: −log10 of the molar value.

The subject of assay [1] is secretion of cytokine IL-8 triggered by lipopolysaccharide (LPS) in the human monocyte cell line THP-1. The assay can be described thus: Inhibition of LPS-triggered IL-8 secretion in THP-1 cells (ELISA). Format: cell-based. On the procedure: The inventive compounds of general formula (I) inhibit the secretion of cytokine IL-8 triggered by lipopolysaccharide (LPS) in the human monocyte cell line THP-1. The concentration of cytokines was determined in the supernatant using commercially available ELISA kits.

The target in assay [2] is T1, progesterone receptor (PR) (Homo sapiens, UniProt P06401).
T1 sequence (P06401 1-933): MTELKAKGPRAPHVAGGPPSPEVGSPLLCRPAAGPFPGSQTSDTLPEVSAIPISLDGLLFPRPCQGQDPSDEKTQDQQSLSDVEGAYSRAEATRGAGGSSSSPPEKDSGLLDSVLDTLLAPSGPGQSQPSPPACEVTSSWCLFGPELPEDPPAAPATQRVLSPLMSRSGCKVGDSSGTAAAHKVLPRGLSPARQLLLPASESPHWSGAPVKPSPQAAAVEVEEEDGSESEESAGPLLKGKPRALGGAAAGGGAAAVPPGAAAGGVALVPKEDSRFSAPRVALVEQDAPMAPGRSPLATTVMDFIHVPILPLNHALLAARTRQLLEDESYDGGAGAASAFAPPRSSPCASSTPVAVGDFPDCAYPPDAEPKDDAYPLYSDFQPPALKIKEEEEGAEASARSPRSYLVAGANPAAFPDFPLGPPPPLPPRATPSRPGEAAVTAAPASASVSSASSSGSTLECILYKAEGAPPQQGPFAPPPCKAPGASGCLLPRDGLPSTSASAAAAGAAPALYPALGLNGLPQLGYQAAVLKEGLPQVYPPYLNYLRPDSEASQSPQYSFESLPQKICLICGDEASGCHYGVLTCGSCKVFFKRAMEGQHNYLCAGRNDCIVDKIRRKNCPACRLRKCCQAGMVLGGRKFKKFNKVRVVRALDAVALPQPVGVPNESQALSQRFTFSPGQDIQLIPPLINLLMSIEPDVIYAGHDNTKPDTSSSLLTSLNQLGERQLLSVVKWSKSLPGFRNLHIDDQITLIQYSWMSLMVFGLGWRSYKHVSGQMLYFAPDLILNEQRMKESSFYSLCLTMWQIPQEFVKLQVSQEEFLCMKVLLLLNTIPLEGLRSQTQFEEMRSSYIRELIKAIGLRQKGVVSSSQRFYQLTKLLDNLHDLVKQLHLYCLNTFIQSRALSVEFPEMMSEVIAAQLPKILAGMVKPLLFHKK
The assay can be described thus: Binding to recombinant progesterone receptor. As to the method: (§1) The binding of substances to the glucocorticoid receptor (GR) and other steroid hormone receptors (mineral corticoid receptor (MR), progesterone receptor (PR) and androgen receptor (AR)) is tested with the help of recombinant receptors. Cytosol preparations of Sf9 cells infected with recombinant baculoviruses that code for GR are used for binding tests. In comparison with the reference substance [^3H]-dexamethasone, these substances have a high affinity for GR. An IC50 (GR)=20 nM and IC50 (PR)>1 μM have been obtained for the compound from Example 2.

Assay [3] has as its target T2, glucocorticoid receptor (GR) (Homo sapiens, UniProt P04150).
T2 construct: made in house; host or cells: Sf9 cells infected with recombinant baculovirus (cytosol preparation)
T2 sequence (P04150 1-777): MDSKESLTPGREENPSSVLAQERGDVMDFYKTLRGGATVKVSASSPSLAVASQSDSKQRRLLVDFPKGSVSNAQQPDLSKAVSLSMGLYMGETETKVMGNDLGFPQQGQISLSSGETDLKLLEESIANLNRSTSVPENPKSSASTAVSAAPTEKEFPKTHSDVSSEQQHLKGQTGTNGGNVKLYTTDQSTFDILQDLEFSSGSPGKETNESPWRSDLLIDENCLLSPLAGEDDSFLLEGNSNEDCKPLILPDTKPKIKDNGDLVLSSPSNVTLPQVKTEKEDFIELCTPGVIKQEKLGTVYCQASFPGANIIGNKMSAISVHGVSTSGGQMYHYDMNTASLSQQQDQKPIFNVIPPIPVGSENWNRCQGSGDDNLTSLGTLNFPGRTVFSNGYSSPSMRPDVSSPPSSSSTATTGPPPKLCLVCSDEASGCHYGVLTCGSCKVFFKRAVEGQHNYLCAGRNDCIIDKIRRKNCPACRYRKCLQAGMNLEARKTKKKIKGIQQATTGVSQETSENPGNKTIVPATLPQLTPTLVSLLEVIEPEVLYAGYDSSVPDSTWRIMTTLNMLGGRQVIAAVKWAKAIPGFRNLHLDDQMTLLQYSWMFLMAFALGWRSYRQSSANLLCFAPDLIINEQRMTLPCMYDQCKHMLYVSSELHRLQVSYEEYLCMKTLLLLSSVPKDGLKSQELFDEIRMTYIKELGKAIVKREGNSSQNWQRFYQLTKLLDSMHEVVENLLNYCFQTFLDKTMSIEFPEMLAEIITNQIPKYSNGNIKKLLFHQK
The assay can be described thus: Binding to recombinant glucocorticoid receptor, reference [3H]-dexamethasone. Particulars: cytosol preparations of Sf9 cells infected with recombinant baculoviruses coding for GR; [3H]-dexamethasone reference. As to the method:
as §1

For orientation: pIC50 means the IC50 on a negative log10 scale, so that one unit is a factor of ten. As to `Cc1ccc2c(NC3c4ccc(F)c5c4C(CCO5)CC3(O)C(F)(F)F)cccc2n1` (mixture of isomers) [Example 2, 9-Fluoro-6-[(2-methylquinolin-5-yl)amino]-5-(trifluoromethyl)-2,3,3a,4,5,6-hexahydrobenzo[de]chromen-5-ol], the pIC50 in assay [1] (Homo sapiens, LPS-stimulated THP-1, IL-8 in supernatant by ELISA, read-out: IC50 (IL8)) was 7.43; in assay [2], below 6.00; in assay [3], 7.70. For the same molecule, the “efficiency with respect to [3H]-dexamethasone as the standard” value in assay [1] (IL-8 inhibition in LPS-stimulated THP-1) is recorded as 70%.
